SMILES strings stand for the structures. Like-named read-outs stand apart in the source and are kept apart here.

IC50 data for 18 compounds are collected here from US20250221988A1 (Cullgen (Shanghai), Inc., priority 2022, published 2025).

For assay [1], the system named is MOLM-13 cells. Briefly: Cell viability assay (CellTiter-Glo) in MOLM-13 cells. It is filed as cell-based. On the procedure:
(§1) Cell Culture: RS4;11, MV4;11, MOLM-13 and other cells were cultured at 37° C. with 5% CO2 in RPMI 1640 or DMEM Medium supplemented with 10% fetal bovine serum. Cells were authenticated using the short tandem repeat (STR) assays. Mycoplasma test results were negative.
Cell viability assays: Cells were seeded at a density of 5000 cells per well in 96-well assay plates and treated with test compounds following a 8-point or 12-point 3-fold serial dilution. Three days later, cell viability was determined using the CellTiter-Glo assay kit according to the manufacturer's instructions. The dose-response curves were determined and IC50 values were calculated using the GraphPad Prism software following a nonlinear regression (least squares fit) method. […]

The test system of assay [2] is MV4;11 cells. Briefly: Cell viability assay (CellTiter-Glo) in MV4;11 cells. In kind it is cell-based. Conditions: read-out: MV4. On the procedure: as §1
Cell viability assays: Cells were seeded at a density of 5000 cells per well in 96-well assay plates and treated with test compounds following a 8-point or 12-point 3-fold serial dilution. Three days later, cell viability was determined using the CellTiter-Glo assay kit according to the manufacturer's instructions. The dose-response curves were determined and IC50 values were calculated using the GraphPad Prism software following a nonlinear regression (least squares fit) method.
The IC50 values (nM) of each compound were determined in MV4;11 and MOLM-13 cells with or without gilteritinib (10 nM for MV4;11; and 20 nM for MOML-13) as described in the Materials and Methods subsection and calculated using the GraphPad Prism 5.0 software.

The mark [3] stands for this setting: Homo sapiens, 72 h, MOLM-13 cells, compound alone, three days, read-out: MOLM-13 IC50.
[4] abbreviates: MOLM-13 cells, with gilteritinib, three days, read-out: MOLM-13 IC50 (nM) + 10 nM Gil.
Where [5] appears, read: Homo sapiens, MV4-11, 72 h, MV4;11 cells, compound alone, three days, 11 IC50.
Where [6] appears, read: MV4;11 cells, with 10 nM gilteritinib, three days, 11 IC50 (nM) + 10 nM Gil.
The mark [7] stands for this setting: Homo sapiens, MOLM-13, 72 h, read-out: MOLM-13 IC50 (nM).
[8] abbreviates: read-out: MOLM-13 IC50 (nM) + 10 nM Gil, MOLM-13 cells, with gilteritinib, three days.
[9] abbreviates: Homo sapiens, MV4-11, 72 h, 11 IC50 (nM).
Setting [10] is: 11 IC50 (nM) + 10 nM Gil, MV4;11 cells, with 10 nM gilteritinib, three days.

Regarding `O=C1CCC(N2C(=O)c3ccc(NC[C@H]4C[C@H](n5cc(-c6ncccc6OC6CC6)c(C6CC6)n5)C4)cc3C2=O)C(=O)N1` (stereo partly drawn) [GS-641, 5-(((Trans-3-(4-(3-cyclopropoxypyridin-2-yl)-3-cyclopropyl-1H-pyrazol-1-yl)cyclobutyl)methyl)amino)-2-(2,6-dioxopiperidin-3-yl)isoindoline-1,3-dione], the IC50 in assay [1] (setting [3]), in assay [1] (setting [4]), in assay [2] (setting [5]) and in assay [2] (setting [6]) was less than 10 nM each time.

Regarding `Cn1ncc2cnc(-c3cn([C@H]4C[C@H](CCc5ccc6c(c5)CN([C@@H]5CCC(=O)NC5=O)C6=O)C4)nc3C3CC3)cc21` [GS-766, 3-(5-(2-(Trans-3-(3-cyclopropyl-4-(1-methyl-1H-pyrazolo[4,3-c]pyridin-6-yl)-1H-pyrazol-1-yl)cyclobutyl)ethyl)-1-oxoisoindolin-2-yl)piperidine-2,6-dione], the IC50 in assay [1] (setting [3]), in assay [1] (setting [4]), in assay [2] (setting [5]) and in assay [2] (setting [6]) was less than 10 nM in each case.

As to `O=C1CCC(N2C(=O)c3ccc(NC[C@H]4C[C@H](n5cc(-c6ncccc6[C@H]6C[C@@H](O)C6)c(C6CC6)n5)C4)cc3C2=O)C(=O)N1` (stereo partly shown) [GS-771], the IC50 was 10 to 100 nM in assay [1] (setting [3]), 10 to 100 nM in assay [1] (setting [4]), 10 to 100 nM in assay [2] (setting [5]) and less than 10 nM in assay [2] (setting [6]).

As to `O=C1CCC(N2C(=O)c3ccc(NC[C@H]4C[C@H](n5cc6ccccc6n5)C4)cc3C2=O)C(=O)N1` (stereo partly drawn) [GS-727, 5-(((Trans-3-(2H-indazol-2-yl)cyclobutyl)methyl)amino)-2-(2,6-dioxopiperidin-3-yl)isoindoline-1,3-dione], the IC50 in assay [1] (setting [7]) was greater than 1000 nM; in assay [1] (setting [8]) it was 100 to 1000 nM; in assay [2] (setting [9]), greater than 1000 nM; in assay [2] (setting [10]), 100 to 1000 nM.

On to `O=C1CCC(N2C(=O)c3cc(F)c(NCCC[C@H]4C[C@H](n5cc(-c6cnc7ccccc7n6)c(C6CC6)n5)C4)cc3C2=O)C(=O)N1` (stereo partly drawn) [GS-718, 5-((3-(Trans-3-(3-cyclopropyl-4-(quinoxalin-2-yl)-1H-pyrazol-1-yl)cyclobutyl)propyl)amino)-2-(2,6-dioxopiperidin-3-yl)-6-fluoroisoindoline-1,3-dione], for which the IC50 in assay [1] (setting [3]) and in assay [2] (setting [5]) was greater than 1000 nM in each case.

For the compound `O=C1CCC(N2Cc3ccc(CC[C@H]4C[C@H](n5cc(-c6cnc7ccccc7n6)c(C6CC6)n5)C4)cc3C2=O)C(=O)N1` (stereo partly drawn) [GS-725, 3-(6-(2-(Trans-3-(3-cyclopropyl-4-(quinoxalin-2-yl)-1H-pyrazol-1-yl)cyclobutyl)ethyl)-1-oxoisoindolin-2-yl)piperidine-2,6-dione], the IC50 in assay [1] (setting [7]) was greater than 1000 nM; in assay [1] (setting [8]), 100 to 1000 nM; in assay [2] (setting [9]) it was 100 to 1000 nM; in assay [2] (setting [10]), 10 to 100 nM.

`O=C1CCC(N2C(=O)c3ccc(NC[C@H]4C[C@H](n5cc(-c6cc7c(cn6)cnn7C6CC(O)C6)c(C6CC6)n5)C4)cc3C2=O)C(=O)N1` (stereo partly drawn) [GS-763, 5-(((Trans-3-(3-cyclopropyl-4-(1-(3-hydroxycyclobutyl)-1H-pyrazolo[4,3-c]pyridin-6-yl)-1H-pyrazol-1-yl)cyclobutyl)methyl)amino)-2-(2,6-dioxopiperidin-3-yl)isoindoline-1,3-dione]: the IC50 in assay [1] (setting [3]) is 10 to 100 nM; in assay [1] (setting [4]), less than 10 nM; in assay [2] (setting [5]), 10 to 100 nM; in assay [2] (setting [6]), less than 10 nM.

For `O=C1CCC(N2C(=O)c3ccc(NC[C@H]4C[C@H](n5cc(C6CCCC(O)C6)c(C6CC6)n5)C4)cc3C2=O)C(=O)N1` (stereo partly drawn) [GS-703, 5-(((Trans-3-(3-cyclopropyl-4-(3-hydroxycyclohexyl)-1H-pyrazol-1-yl)cyclobutyl)methyl)amino)-2-(2,6-dioxopiperidin-3-yl)isoindoline-1,3-dione], the IC50 lay within 100 to 1000 nM in assay [1] (setting [3]), 10 to 100 nM in assay [1] (setting [4]), 10 to 100 nM in assay [2] (setting [5]) and 10 to 100 nM in assay [2] (setting [6]).

Regarding `Cn1cc(Nc2cn([C@H]3C[C@H](CNc4ccc5c(c4)C(=O)N(C4CCC(=O)NC4=O)C5=O)C3)nc2C2CC2)cn1` (stereo partly drawn) [GS-773, 5-(((Trans-3-(3-cyclopropyl-4-((1-methyl-1H-pyrazol-4-yl)amino)-1H-pyrazol-1-yl)cyclobutyl)methyl)amino)-2-(2,6-dioxopiperidin-3-yl)isoindoline-1,3-dione], the IC50 is 10 to 100 nM in assay [1] (setting [3]), less than 10 nM in assay [1] (setting [4]), less than 10 nM in assay [2] (setting [5]) and less than 10 nM in assay [2] (setting [6]).

For the compound `CC(C)n1cc2ccnc(-c3cn([C@H]4C[C@H](CNc5ccc6c(c5)C(=O)N(C5CCC(=O)NC5=O)C6=O)C4)nc3C3CC3)c2n1` (stereo partly drawn) [GS-660, 5-(((Trans-3-(3-cyclopropyl-4-(2-isopropyl-2H-pyrazolo[3,4-c]pyridin-7-yl)-1H-pyrazol-1-yl)cyclobutyl)methyl)amino)-2-(2,6-dioxopiperidin-3-yl)isoindoline-1,3-dione], the IC50 in assay [1] (setting [3]), in assay [1] (setting [4]), in assay [2] (setting [5]) and in assay [2] (setting [6]) was less than 10 nM each time.

Take `O=C1CCC(N2C(=O)c3ccc(NC[C@H]4C[C@H](n5cc(-c6cccc(N7CC(O)C7)n6)c(C6CC6)n5)C4)cc3C2=O)C(=O)N1` (stereo partly drawn) [GS-647, 5-(((Trans-3-(3-cyclopropyl-4-(6-(3-hydroxyazetidin-1-yl)pyridin-2-yl)-1H-pyrazol-1-yl)cyclobutyl)methyl)amino)-2-(2,6-dioxopiperidin-3-yl)isoindoline-1,3-dione]: the IC50 in assay [1] (setting [3]) is greater than 1000 nM; in assay [1] (setting [4]) it was 10 to 100 nM; in assay [2] (setting [5]), greater than 1000 nM; in assay [2] (setting [6]), 100 to 1000 nM.

Consider `Cc1nc(-c2cn([C@H]3C[C@H](COc4ccc5c(c4)CN(C4CCC(=O)NC4=O)C5=O)C3)nc2C2CC2)ccc1F` (stereo partly drawn) [GS-787, 3-(5-((Trans-3-(3-cyclopropyl-4-(5-fluoro-6-methylpyridin-2-yl)-1H-pyrazol-1-yl)cyclobutyl)methoxy)-1-oxoisoindolin-2-yl)piperidine-2,6-dione], for which the IC50 in assay [1] (setting [3]) and in assay [2] (setting [5]) was greater than 1000 nM throughout.

In the case of `CC(C)n1ccc2ccc(-c3cn([C@H]4C[C@H](CNc5ccc6c(c5)C(=O)N(C5CCC(=O)NC5=O)C6=O)C4)nc3C3CC3)nc21` (stereo partly drawn) [GS-737, 5-(((Trans-3-(3-cyclopropyl-4-(1-isopropyl-1H-pyrrolo[2,3-b]pyridin-6-yl)-1H-pyrazol-1-yl)cyclobutyl)methyl)amino)-2-(2,6-dioxopiperidin-3-yl)isoindoline-1,3-dione], the IC50 lay within 100 to 1000 nM in assay [1] (setting [7]), 10 to 100 nM in assay [1] (setting [8]), 10 to 100 nM in assay [2] (setting [9]) and 10 to 100 nM in assay [2] (setting [10]).

`Cc1nc(-c2cn([C@H]3C[C@H](CNc4cc5c(cc4F)C(=O)N(C4CCC(=O)NC4=O)C5=O)C3)nc2C2CC2)ccc1F` (stereo partly shown) [GS-716]: the IC50 in assay [1] (setting [3]) and in assay [2] (setting [5]) was greater than 1000 nM in each case.

Consider `CN1CC(n2cc3cnc(-c4cn([C@H]5C[C@H](CNc6ccc7c(c6)C(=O)N(C6CCC(=O)NC6=O)C7=O)C5)nc4C4CC4)cc3n2)C1` (stereo partly drawn) [GS-680, 5-(((Trans-3-(3-cyclopropyl-4-(2-(1-methylazetidin-3-yl)-2H-pyrazolo[4,3-c]pyridin-6-yl)-1H-pyrazol-1-yl)cyclobutyl)methyl)amino)-2-(2,6-dioxopiperidin-3-yl)isoindoline-1,3-dione], for which the IC50 in assay [1] (setting [3]) was 10 to 100 nM; in assay [1] (setting [4]), less than 10 nM; in assay [2] (setting [5]), less than 10 nM; in assay [2] (setting [6]), less than 10 nM.

In the case of `COc1ccc2c(C3CC3)nn([C@H]3C[C@H](CNc4ccc5c(c4)C(=O)N(C4CCC(=O)NC4=O)C5=O)C3)c2n1` (stereo partly drawn) [GS-674, 5-(((Trans-3-(3-cyclopropyl-6-methoxy-1H-pyrazolo[3,4-b]pyridin-1-yl)cyclobutyl)methyl)amino)-2-(2,6-dioxopiperidin-3-yl)isoindoline-1,3-dione], the IC50 in assay [1] (setting [3]) and in assay [2] (setting [5]) was greater than 1000 nM throughout.

Turning to `Cc1cccc2cnn([C@H]3C[C@H](CNc4ccc5c(c4)C(=O)N(C4CCC(=O)NC4=O)C5=O)C3)c12` (stereo partly drawn) [GS-693, 2-(2,6-Dioxopiperidin-3-yl)-5-(((trans-3-(7-methyl-1H-indazol-1-yl)cyclobutyl)methyl)amino)isoindoline-1,3-dione], the IC50 in assay [1] (setting [3]) is greater than 1000 nM; in assay [1] (setting [4]), 100 to 1000 nM; in assay [2] (setting [5]) it was greater than 1000 nM; in assay [2] (setting [6]), 100 to 1000 nM.

Regarding `Cc1nc(-c2cn([C@H]3C[C@H](CCc4ccc5c(c4)CN(C4CCC(=O)NC4=O)C5=O)C3)nc2C2CC2)ccc1F` (stereo partly drawn) [GS-753, 3-(5-(2-(Trans-3-(3-cyclopropyl-4-(5-fluoro-6-methylpyridin-2-yl)-1H-pyrazol-1-yl)cyclobutyl)ethyl)-1-oxoisoindolin-2-yl)piperidine-2,6-dione], the IC50 in assay [1] (setting [3]) is 100 to 1000 nM; in assay [1] (setting [4]) it was 10 to 100 nM; in assay [2] (setting [5]), 10 to 100 nM; in assay [2] (setting [6]), less than 10 nM.
